According to PubChem BioAssay (NCI):
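At the GI50, growth is halved. TGI is the concentration that stops growth completely.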

How the values were obtained:
Assay in all cases: growth of human tumour cells (NCI), 384-well format
OVCAR-3 ovarian = test system: OVCAR-3 ovarian
HCT-15 colon = test system: HCT-15 colon
SNB-19 CNS = test system: SNB-19 CNS
786-0 renal = test system: 786-0 renal
HCT-116 colon = test system: HCT-116 colon
MDA-MB-435 melanoma = test system: MDA-MB-435 melanoma
UACC-62 melanoma = test system: UACC-62 melanoma
RPMI-8226 leukemia = test system: RPMI-8226 leukemia
HCC-2998 colon = test system: HCC-2998 colon
HOP-62 NSCLC = test system: HOP-62 NSCLC
MDA-MB-468 breast = test system: MDA-MB-468 breast
COLO 205 colon = test system: COLO 205 colon
T-47D breast = test system: T-47D breast

Structure (SMILES): CCc1c(C#N)c(SC(C(N)=O)c2ccccc2)nc(N2CCC(N)CC2)c1C#N (stereo unspecified)
- GI50 (OVCAR-3 ovarian): 0.44 µM
- TGI (OVCAR-3 ovarian): 6.5 µM
- GI50 (HCT-15 colon): 17.3 µM
- TGI (HCT-15 colon): 31.3 µM
- GI50 (SNB-19 CNS): 13.9 µM
- TGI (SNB-19 CNS): 27 µM
- GI50 (786-0 renal): 11.7 µM
- TGI (786-0 renal): 24 µM
- GI50 (HCT-116 colon): 1.84 µM
- TGI (HCT-116 colon): 14.5 µM
- GI50 (MDA-MB-435 melanoma): 16.8 µM
- TGI (MDA-MB-435 melanoma): 30.5 µM
- GI50 (UACC-62 melanoma): 6.36 µM
- TGI (UACC-62 melanoma): 19.7 µM
- GI50 (RPMI-8226 leukemia): 0.201 µM
- TGI (RPMI-8226 leukemia): 1.38 µM
- GI50 (HCC-2998 colon): 8.72 µM
- TGI (HCC-2998 colon): 20.9 µM
- GI50 (HOP-62 NSCLC): 4.92 µM
- TGI (HOP-62 NSCLC): 16.3 µM
- GI50 (MDA-MB-468 breast): 8.13 µM
- TGI (MDA-MB-468 breast): 20.4 µM
- GI50 (COLO 205 colon): 3.42 µM
- TGI (COLO 205 colon): 17.4 µM
- GI50 (T-47D breast): 14.8 µM
- TGI (T-47D breast): 28 µM
